Source: a melting point compilation (Tetko et al.; mined from patent text by program, amines drawn as free bases though some values may be those of a salt)

Point of comparison: CNC(=O)[C@@H]1C=CCN1S(=O)(=O)c1ccc(Cl)c(COc2cccc3c(-n4ccnc4)cc(C)nc23)c1Cl, melting point 132 °C. Against it:
- O=C1OC2CCC1OC2 (stereo not given) — lower, 56 to 57 °C
- COc1ccc(N2CCN(c3c(C)c(C)c4c(c3C)C(c3ccccn3)C(C)(C)O4)CC2)cc1 (stereo not given) — lower, 123 to 125 °C
- CC(=O)c1cc2c(cc1O)CCCC2 — lower, 70 to 72 °C
- CN(C)CCCNc1ccc(NCCCN(C)C)c2c1C(=O)c1c(O)ccc(O)c1C2=O — higher, 154 to 157 °C
- Cn1c(=O)c(=O)[nH]c2c3ccccc3ccc21 — higher, 333 °C
- Cc1nn(C)c(NCC(C)(C)C)c1N — lower, 65 to 69 °C
- COc1ccccc1C(=O)OC(=C1C(=O)N(C(N)=O)c2cc(Cl)c(F)cc21)c1cccs1 — higher, 219 to 221 °C
- CCCCC1(C(=O)N[C@@H](Cc2ccc(NC(=O)c3c(Cl)cccc3Cl)cc2)C(=O)OC)CCCC1 — higher, 193 to 196 °C
- CCCn1c(=O)cc(Cl)n(CC#N)c1=O — lower, 83 to 84 °C
- COC(=O)c1ccccc1Nc1cccc(C(C)O)c1Cl (stereo not given) — lower, 94 to 95 °C
- CCC1(CC)CN(C(C)(C)C)C(=O)C(CC)(CC)N1OC(C)(C)C#N — lower, 45 to 52 °C
- CNC(=O)Oc1cccc(NC(=O)CC(C)=O)c1 — higher, 142 °C
- CN(C)c1cccc(Cc2cc3cccc(-c4cccc(C(=O)NCC(N)=O)c4)c3s2)c1 — higher, 149 to 151 °C
- COc1ccc(C(=O)c2c(N)sc3c2CCN(Cc2ccccc2)C3)cc1OC — higher, 149 to 150 °C
- COc1ccc(C(=O)Nc2cc(-c3c(-c4cccc(C)c4)nc4cccnn34)ccn2)cc1 — higher, 177 to 178 °C
- CCCc1nc(OC)c(NC(=O)N2CCN(c3cc(C)cc(C)c3)CC2)cc1C — higher, 138 to 139 °C
- CN(C)c1ccccc1CS(=O)(=O)c1nccn1-c1ccncc1 — not separable, 132 to 135 °C
- CC1CCC(=O)N1CC(=O)NCCN1C(C)CCCC1C (stereo not given) — lower, 115 to 116 °C
- Nc1cc(F)ccc1Nc1ccccc1 — lower, 83 to 84 °C
- Cc1cccc(S(=O)(=O)N=CN(C)C)c1C#N — higher, 168 to 174 °C
- CNC(Cc1ccccc1N)C(=O)c1ccc(OC)c(OC)c1 (stereo not given) — lower, 128 to 131 °C
- Cc1ccc(C(=O)Nc2ccc(N3CCN(Cc4ccc[nH]4)CC3)cc2)c(-c2ccc(C(F)(F)F)cc2)c1 — higher, 196 to 198 °C
- CCCCCCCOC(=S)SC(Cn1ccnc1)c1ccc(Cl)cc1Cl (stereo not given) — lower, 107 to 113 °C
- CN(Cc1cccc(Cl)c1)c1ccc(C(=O)O)nc1 — higher, 138 to 140 °C
- Cc1ccc(S(=O)(=O)Nc2cc3c(c(C(=O)O)c2)NCCO3)cc1 — higher, 213 to 215 °C
- CCOC(=O)C=C1C(OC)CC1c1cccc(C2(c3ccc(OC(F)F)cc3)N=C(N)N(C)C2=O)c1 (stereo not given) — lower, 78 to 80 °C
- O=C1N(Cc2cc(=O)[nH]c(=O)[nH]2)c2ccccc2C12COc1cc3c(cc12)OCO3 (stereo not given) — higher, > 300 °C
- CC(NC(=O)n1c(=O)nc(N(C)C)n1C)c1ccccc1 (stereo not given) — lower, 103 °C
- Cn1c(-c2cccnc2)c(CCCCCC(=O)O)c2ccccc21 — lower, 117 to 120 °C
- CNS(=O)(=O)/C=C/c1ccc2[nH]cc(C3CCN(C)CC3)c2c1 — higher, 190 to 192 °C
- Cc1cccc2c1CN(S(C)(=O)=O)CCS2 — lower, 128 to 130 °C
- CC(N)=NS(=O)(=O)C=Cc1c(Cl)cccc1Cl — higher, 154 to 158 °C
- CCCCCCCNC(=O)Nc1ccccc1C(=O)NC1CCN(C(c2ccccc2)c2ccccc2)CC1 — higher, 182 °C
- CCC(CC)NC(=O)NC/C=C\COc1cc(CN2CCCCC2)ccn1 — lower, 82 to 84 °C
- CN1CC(CNC(=S)NC(=O)c2ccccc2)CC2c3cccc4[nH]cc(c34)CC21 (stereo not given) — higher, 153 to 155 °C
- COC(=O)c1cc2cc(O)ccc2o1 — not separable, 132 to 133 °C
- O=C(CCC#Cc1ccccn1)Nc1cccc(Cl)c1 — higher, 168 to 169 °C
- CCCCCC(=O)Nc1ccc2ccn(CCCCCCCC#N)c2c1 — lower, 85 to 86 °C
- COc1cc(OCCN2C3C=C(c4ccc5ccccc5c4)CC2CC3)c2ncccc2c1 (stereo not given) — lower, 100 to 103 °C
- CCOc1nc(C)nc(N2CCc3ccccc3CC2)c1C#N — lower, 106 to 109 °C
- [N-]=[N+]=NC(c1ccccc1)C(O)c1ccccc1 (stereo not given) — lower, 59 to 60 °C
- COc1ccc(C2CCN(C)CC2)cc1Nc1ncc2ccc(-c3ccccc3OC)n2n1 — lower, 64 to 69 °C
- COc1ccc(OCc2ccccc2)cc1C=O — lower, 99 to 100 °C
- CC1(CN)CN(c2c(F)cc3c(=O)c(C(=O)O)cn(C4CC4)c3c2F)C1 — higher, 268 to 270 °C
- Cc1ccc(CS(=O)c2c(O)cc(C)oc2=O)cc1 (stereo not given) — higher, 156 to 158 °C
- Oc1ccccc1CNNCc1ccccc1O — higher, 315 to 316 °C
- CNCCN1C(=O)[C@H](O)[C@H](c2ccc(OC)cc2)Sc2cc(Cl)ccc21 — higher, 142 to 145 °C
- CCN(CC)CC(=O)Nc1ccc([N+](=O)[O-])cc1 — lower, 65 to 66 °C
- CCc1nc2c(cnn2CC)c(NC2CCOCC2)c1CNC(=O)c1cccc(C(=O)NCc2ccc(Cl)c(-c3cccc(CN4CC(C)NC(C)C4)c3)c2)c1 (stereo not given) — lower, 121 to 124 °C
- COc1ccc(-c2nnc(O)nc2-c2ccc(OC)cc2)cc1 — higher, 238 to 242 °C
- Cc1ccc(NS(=O)(=O)c2cc(C)c3cc(C(C)C)ccc(C)c2-3)cc1 — higher, 146 to 148 °C
- CC1N=C(c2ccccc2F)c2cc(I)ccc2NC1=O (stereo not given) — higher, 211 °C
- CCc1cccc(C=CC(=O)CCCc2ccccc2)c1NC(=O)CC1c2ccccc2Oc2ccccc21 — higher, 168 to 170 °C
- O=C(CC(O)(c1cc(Cl)cc(Cl)c1)C(F)(F)F)c1ccc(Br)c2ccccc12 (stereo not given) — lower, 74.5 to 75 °C
- Cc1cccc(C(=O)N(C(=O)c2cccc(C)c2)c2nc3ccccc3c(NCc3ccccc3)c2C#N)c1 — higher, 234 °C
- COC(=O)c1ccc2c(c1)C(CNC(=O)OC(C)(C)C)CCC2 (stereo not given) — lower, 72 to 80 °C
- C=CCOc1ccc(C(=O)CC(C)(C#N)c2ccc(OC)cc2OC)cc1 (stereo not given) — lower, 77.8 to 78.5 °C
- c1ccc(-c2cc(-c3ccc(C4CCCC4)cc3)sc2-c2ccccc2)cc1 — higher, 150 °C
- CCC(=O)C1c2cccc(O)c2C(=O)c2c(OC(=O)C(C)C)cccc21 (stereo not given) — lower, 111 °C
- COc1ccc(CC2CCC3NC(=O)C(CO)CC3C2)cc1 (stereo not given) — higher, 193 to 200 °C
- O=c1[nH]cnc(N=Nc2ccccc2)c1O — higher, 244 to 245 °C
- CCOP(=O)(C/C=C/CNc1c(N)c(=O)c1=O)OCC — higher, 145 to 147 °C
- Cc1c(C(=O)N[C@@H](Cc2ccc(OCc3ccsc3)cc2)C(=O)O)oc2cc(-c3ccc(Cl)cc3)ccc12 — lower, 111 to 113 °C
- O=C(N1CCOCC1)C(c1ccccc1)(c1ccccc1)c1ncc[nH]1 — lower, 113 °C
- Cc1cc(NS(=O)(=O)c2ccc(Br)cc2)cc(C)c1S(=O)(=O)C[N+](=O)[O-] — higher, 164 to 166 °C
- COc1ccc(Cl)c2c1CCC(CCl)=C2 — lower, 68 to 69.5 °C
- CC(=O)c1c(C)[nH]c(C(C)c2ccccc2)c1C (stereo not given) — higher, 146 to 148 °C
- CCOC(=O)NC1Cc2ccccc2C1Nc1ccccc1CO (stereo not given) — lower, 115 to 117 °C
- Cc1ccc(-c2[nH]c(C(C)(C)C)nc2C(=O)Nc2nccs2)cc1 — higher, 218 °C
- CCC(=O)c1ccc(Oc2ccc(-c3scc(-c4ccccc4Cl)c3CC(=O)N=C(N)N)cc2)cc1 — lower, 123 to 124 °C
- CCOCc1nc2c(N)nc3cc(OCc4nc(-c5cccs5)no4)ccc3c2n1CC(C)(C)O — higher, 173 to 175 °C
- CN(CCc1ccccc1)C1CCN(C(=O)Nc2ccccc2)CC1 — lower, 105 to 107 °C
- CCON=C(c1ccccc1SCc1ccc(Cl)cc1)n1ccnc1 — lower, 96.5 to 97.5 °C
- CCOC(=O)C(C)(C)Sc1ccc(O)cc1 — lower, 68 to 69 °C
- Cc1c(Sc2ccc(Cl)cc2)nn(-c2ccc(Cl)cc2)c(=O)c1C#N — higher, 177 to 179 °C
- CS(=O)c1ccc(C2=C(c3ccccc3)C(=O)OC2)cc1 (stereo not given) — higher, 149 to 150 °C
- NS(=O)(=O)c1cc(C(=O)c2csc3ccccc23)ccc1Cl — higher, 154 to 156 °C
- CCOc1nn(C(=O)NS(=O)(=O)c2c(C)cccc2OC(C)C)c(=O)n1C — higher, 155 °C
- CC(=O)OC(C)c1ccc(CCOc2ccc(CC3SC(=O)NC3=O)cc2)nc1 (stereo not given) — higher, 143 to 144 °C
- CCOc1c(Nc2cccc(C3C(C(=O)OC)=C(C)NC(C)=C3C(=O)OC)c2)c(=O)c1=O — higher, 249 to 252 °C
- CC(OCc1ccc(-c2ccccc2)cc1)(C(=O)O)C(F)(F)F (stereo not given) — lower, 80 to 81 °C
- CC(O)Cn1ccc2ccc(F)c(Cl)c21 (racemic) — lower, 85 to 87 °C
- O=C1OCCN1c1ccc(OC(F)C(F)(F)F)cc1 (stereo not given) — lower, 74 to 76 °C
- Cc1ccc(C(=O)CCCl)cc1 — lower, 77.5 to 78.5 °C
- C=CCC1C(=NO)C2CCC1CC2 (stereo not given) — lower, 124 to 125 °C
- CC(=O)NC(Cc1ccc(C)c(C)c1)C(=O)O (racemic) — higher, 136 to 139 °C
- CCCCCCCCCCCCCCCC(=O)OCC(O)COC(=O)CCCCCCCCCCCCCCC — lower, 71 to 73 °C
- CCOC(=O)C(CC)Cc1ccc(N2C(=O)c3ccccc3C2=O)cc1 (stereo not given) — lower, 86 to 87 °C
- Cc1ccc(-c2c(-c3ccc(S(C)(=O)=O)cc3)[nH]c3ccccc23)cc1C — higher, 206 to 207 °C
- COC(=O)CCCc1cc2cc(Cl)ccc2n1S(=O)(=O)c1cccc2ccccc12 — lower, 94 to 97 °C
- CC(=O)CC(=S)NCC(=O)N1CCC[C@H]1C(=O)O — higher, > 320 °C
- OCc1cnn(C(c2ccccc2)(c2ccccc2)c2ccccc2)c1 — higher, 181 to 184 °C
- CN1C(C)(C)CC(O)C(O)C1(C)C (stereo not given) — lower, 78 °C
- CCCCCCCCCCCCCCCCCC(=O)NCC(C)(C)COC(=O)CCc1cc(C(C)(C)C)c(O)c(C(C)(C)C)c1 — lower, 44 °C
- COc1c(Cl)c(OC)c2cnoc2c1Cl — higher, 138 to 140 °C
- CC1(C)C(=O)N(c2ccc(C#N)c(C(F)(F)F)c2)C(=O)N1CCCCCN1C(=O)N(c2ccc(C#N)c(C(F)(F)F)c2)C(=O)C1(C)C — higher, 167 to 169 °C
- C[C@]1(COc2ccc3nc(N4CCC(Cc5ccc(OC(F)(F)F)cc5)CC4)ccc3c2)Cn2cc([N+](=O)[O-])nc2O1 — higher, 185 to 186 °C
- CC1CCCCC1N(Cc1ccc(C(=O)NC(C)(C)C(=O)O)cc1)S(=O)(=O)c1ccc(C(F)(F)F)nc1 (stereo not given) — not separable, 131 to 132 °C
- Clc1ccc2cc3ccccc3cc2c1 — higher, 220 to 221 °C
